In patent publication US20250382330A1, “IMMUNOLOGICALLY ACTIVE POLYPEPTIDE” (CDRES PHARMA LLC, priority 2022, published 2025):
Entries after “also recorded” stand apart in the source; their conditions may differ. Like-named read-outs stand apart in the source and are kept apart here. Ends that are not written are not given here.

Experiments:
[1] = first renal transplantations, cited from earlier work
[2] = system: collagen-induced arthritis in Lewis rats; test: Collagen-induced arthritis in Lewis rats, daily arthritis index; type: in vivo, Lewis rat; conditions: positive control, 10 mg/kg/day
Method: A. Collagen-Induced Lewis Rat Model of Rheumatoid Arthritis (RA)-PeptideX2 (SEQ ID NO: 1). The Lewis rat system is an art-accepted in vivo animal model of collagen-induced rheumatoid arthritis. Lewis rats obtained from a commercial laboratory supply vendor were maintained during a quarantine period under standard animal care conditions and found to be free of any clinical signs of disease or distress. Bovine type II collagen (10 mg, Chondrex, Inc., Redmond, WA) was dissolved in 2.5 ml 0.1M acetic acid and stirred overnight at 4-8° C. in the dark, and then one ml of this collagen solution was emulsified in one ml of incomplete Freund's adjuvant (ICFA, Sigma, St. Louis, MO) on an ice bath. On day zero, each of five rats was injected with 0.2 ml of collagen/ICFA emulsion at two sites and then observed for the next 30 days with the arthritis index (AI) calculated daily using the 16-point scoring method of Bevaart et al. (2010 Meths. Mol. Biol. 602:181: 0 points, no joint swelling or edema; 1 point, slight edema and erythema limited to foot and/or ankle; 2 points, edema and erythema in the toes and most ankle joints; 3 points, severe edema and erythema in the paw below the ankle joint; 4 points, edema and erythema of all four paws including the ankle joint). […]
6 Lewis rats (ENVIGO, female, 190-210g) were received, individually examined, and housed. […] Rat weights were recorded daily. […]

[3] = Solubility of peptideX2-13 modifications in aqueous buffer; type: physicochemical; conditions: for solubility, comparative: modification (10) vs peptideX2-13, modification (11) vs (10), reversed core sequence
Method: Various modifications of peptideX2-13 were tested for solubility (see Table 2).

[4] = Tolerability / adverse effects of intravenous dosing in the Lewis rat RA model; type: in vivo; conditions: for adverse effects: 500 μg/ml, intravenous
Method: On day 15, the rats were divided into treatment groups and were dosed intravenously on a daily basis for the next 15 days (except as noted) with the pentide YLQMN (SEQ ID NO: 5)-containing PeptideX2 (SEQ ID NO: 1) to achieve final circulating concentrations of PeptideX2 peptide as follows: 0 μg/ml (vehicle control: 0.2% acetic acid-Dulbecco's phosphate buffered saline (PBS-D), pH 6.0); 100 μg/ml vehicle; 200 μg/ml vehicle, and 500 μg/ml vehicle per rat/per day. As a positive control for anti-inflammatory activity, daily dosing of a control rat with prednisolone at 10 mg/kg/day was used. The arthritis index was calculated daily for each viable rat throughout the 30-day study.
B. Stability, aggregation, and toxicity of the pentide YLQMN (SEQ ID NO: 5)-containing polypeptides PeptideX2 (SEQ ID NO: 1) and G2-PeptideX2 (SEQ ID NO: 2).
Eleven Lewis rats were prepared using the collagen induced arthritis protocol. At day 15 thru day 30, three rats were given daily dosing of PeptideX2-13 (SEQ ID NO: 3) at 100 μg/ml, three rats were given daily dosing of PeptideX2-13 (SEQ ID NO: 3) at 250 μg/ml, and three rats were given daily dosing of PeptideX2-13 (SEQ ID NO: 3) at 500 μg/ml; as a positive control group, two rats were given prednisolone at 10 mg/kg/day.
The rats were weighed, scored for signs of arthritis and assigned to various treatment groups of one or more rats to each group. For the prednisolone control group, 200.85 mg prednisolone 21-hemisuccinate sodium salt (Sigma, Cat. P4153) was dissolved in 15 ml de-ionized water to prepare a 10 mg/ml solution which was stored at 4-8° C. when not in use. Rats in the study groups were dosed daily from day 15 through day 30 according to the formula for which a rat weighing (g)×64 ml/1000 g (represents the total blood volume) multiplied by the test product dose/test product concentration to determine the total volume to be injected into the animal per day to achieve that desired estimated blood concentration. Rats were weighed and scored daily during the treatment phase of the experiment and the results recorded and reported.

[5] = target: T1, human TLR2 (human, UniProt O60603 21-784); test: NF-κB SEAP reporter on human TLR panel; binding inferred from reporter activity
T1 construct: whole, on cells; Expressed in HEK293 NF-κB/SEAP reporter cells; also called hTLR2; toll-like receptor 2
T1 sequence (O60603 21-784): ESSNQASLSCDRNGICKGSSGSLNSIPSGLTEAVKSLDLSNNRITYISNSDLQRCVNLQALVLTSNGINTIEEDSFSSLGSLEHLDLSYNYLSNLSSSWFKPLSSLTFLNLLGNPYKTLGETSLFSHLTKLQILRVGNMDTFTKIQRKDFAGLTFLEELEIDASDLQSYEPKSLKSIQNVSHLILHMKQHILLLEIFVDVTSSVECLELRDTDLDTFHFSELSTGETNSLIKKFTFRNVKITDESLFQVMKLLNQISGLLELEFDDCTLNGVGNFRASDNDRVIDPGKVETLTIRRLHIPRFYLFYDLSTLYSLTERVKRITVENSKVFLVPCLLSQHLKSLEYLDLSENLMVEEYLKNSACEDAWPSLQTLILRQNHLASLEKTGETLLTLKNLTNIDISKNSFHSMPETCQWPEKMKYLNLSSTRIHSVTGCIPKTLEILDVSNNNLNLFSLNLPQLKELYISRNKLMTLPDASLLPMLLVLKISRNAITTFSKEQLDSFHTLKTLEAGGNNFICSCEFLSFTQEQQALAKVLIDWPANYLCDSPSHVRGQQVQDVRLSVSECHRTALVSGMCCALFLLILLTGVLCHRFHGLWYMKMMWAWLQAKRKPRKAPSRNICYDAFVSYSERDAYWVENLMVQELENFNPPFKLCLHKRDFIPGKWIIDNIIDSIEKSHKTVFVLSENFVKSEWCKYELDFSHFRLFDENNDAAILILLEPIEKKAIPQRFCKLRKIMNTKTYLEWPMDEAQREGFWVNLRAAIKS

[6] = target: T1, human TLR2; test: NF-κB SEAP reporter in HEK293 cells expressing human TLR2, 200 µg/ml (FIG. 6); binding inferred from reporter activity
Method: Human Toll-like receptor ligand screening was performed using test samples containing a peptide of interest at 200 μg/ml. The general procedure consisted of testing for NF-κB activation in HEK293 cells expressing a given TLR. The samples were tested against seven different human TLRs (TLR2, 3, 4, 5, 7, 8, 9). The media added to the wells were designed for the detection of NF-κB induced SEAP (secreted embryonic alkaline phosphatase) expression. After 16-24 hours of incubation, the optical density (OD) was read at 650 nm on a Molecular Devices SpectraMax 340PC absorbance detector.

[7] = buffer (0.2% acetic acid, 0.375M Hepes, 0.375% glycerol, pH 7), no concentration stated

In the case of `Cn1cnc([N+](=O)[O-])c1Sc1ncnc2nc[nH]c12` [AZA, azathioprine], the graft survival rate ([1]; 5 years post-transplant) is given as 56% and the graft survival rate ([1]; 10 years post-transplant) is given as 46%.

For `C=CC[C@@H]1/C=C(\C)C[C@H](C)C[C@H](OC)[C@H]2O[C@@](O)(C(=O)C(=O)N3CCCC[C@H]3C(=O)O[C@H](/C(C)=C/[C@@H]3CC[C@@H](O)[C@H](OC)C3)[C@H](C)[C@@H](O)CC1=O)[C@H](C)C[C@@H]2OC` [TAC, tacrolimus], the graft survival rate ([1]; 5 years post-transplant) is given as 77% and the graft survival rate ([1]; 10 years post-transplant) is given as 60%.

In the case of `C[C@]12C=CC(=O)C=C1CC[C@@H]1[C@@H]2[C@@H](O)C[C@@]2(C)[C@H]1CC[C@]2(O)C(=O)CO` [prednisolone], the arthritis index [2] is reported as “potent and sustained reduction of the arthritis index; also recorded: decreased”.

With GKAANMQLYAAKG [SEQ ID NO: 17] the Solubility ([3]; buffer, at 2 mg/ml) was “Soluble in buffer”.

In the case of GKAAYLQMNAAKG [PeptideX2-13], the “tolerability in animal model compared with PeptideX2” value ([4]; summary statement) is reported as “tolerated and not toxic at a certain higher concentrations than was the case for previously described PeptideX2” and the Solubility [3, 7] is reported as “Soluble in buffer”.

For GKAYLQMNAKG [SEQ ID NO: 13], the Solubility ([3]; buffer, at 2 mg/ml) was “Soluble in buffer”.

For GKYLQMNKG [SEQ ID NO: 22], the Solubility ([3]; buffer, at 2 mg/ml) was “Soluble in buffer”.

For “GRAAYLQMNAARG [K2R/K12R-substituted PeptideX2-13]”, the Solubility ([3]; buffer, at 2 mg/ml) was “Soluble in buffer”.

In the case of GRSSANMQLYASSRG [modification (11)], the Solubility ([3]; at 5 mg/ml concentration) is reported as “Insoluble at” and the “solubility, comparative” value [3] is reported as “no significant difference”.

For GRSSAYLQMNASSRG [modification (10)], the Solubility ([3]; at 5 mg/ml concentration) was “Insoluble at” and the “solubility, comparative” value [3] was “less solubility compared to peptideX2-13”.

For GYLQMNG [modification (7), GYLQMNG], the Solubility [3, 7] was “insoluble in aqueous buffer”.

For “KSIAYLQMNSLK [PeptideX2, reference compound]”, the adverse effects [4] was “went into respiratory distress and died immediately” and the “outcome (death)” value ([4]; single IV dose to achieve 300 μg/ml, thirty-eight minutes after injection) was “went into convulsions again and died”.

In the case of PKAAYLQMNAAKP [SEQ ID NO: 12], the Solubility ([3]; buffer, at 2 mg/ml) is reported as “Soluble in buffer”.

With YLQMN [pentide, YLQMN] the adverse effects [4] was “No adverse effects”.

B1: PeptideX2 (KSIAYLQMNSLK) (peptide)
peptide: KSIAYLQMNSLK
B1: binds [5].

B2: reverse modified peptideX2 (NMQLY) (peptide)
peptide: NMQLY
notes: Printed as NMQLY; also called reverse core; reverse-peptideX2
B2: binds [6].
